The values that follow come from patent publication US20230212142A9, “Substituted 5-Cyclopropyl-1H-pyrazole-3-yl-amine Derivatives as Selective CDK12/13 Inhibitors” (Aurigene Discovery Technologies Limited, priority 2019, published 2023).

Experiment [1] concerns the target T1, CDK12 (Homo sapiens, UniProt Q9NYV4). As to the kind of experiment: CDK12 plate based target engagement assay in Jurkat cells. Format: cell-based. Particulars: 6 hours treatment, Bio-THZ531 competition. Also on record: endogenous in cells; host or cells: Jurkat. Here is the method:
Jurkat cells were treated with varying concentrations of the compound for 6 hours. The DMSO concentration was maintained at 0.1%. Cells were harvested and lysed. 200 μg of the lysate was incubated with 1 μM Bio-THZ531 in the presence of 1mM DTT and incubated on a rocker at 4° C. overnight. 100 μL of this sample was added to pre-washed streptavidin coated plates and incubated at room temperature on a rocker for 2 hours. The plates were washed and incubated with CDK12 antibody for overnight at 4° C. Next day the plate was washed and incubated for 2 hours with HRP labelled anti rabbit secondary antibody. Bio-THZ531 bound CDK12 was determined using TMB substrate. The plates were read using the M3 spectrophotometer at […]. Percentage CDK12 occupancy with the test compound was calculated over untreated control. Occupancy50 was calculated by fitting the dose response data to sigmoidal curve fitting equation using GraphPad Prism software V5.

In experiment [2] the target is T2, CDK7 (Homo sapiens, UniProt P50613). As to the kind of experiment: CDK7 target occupancy in Jurkat cells. The format is cell-based. Also on record: endogenous in cells; host or cells: Jurkat.
Target sequence in this assay (P50613 2-346 limits assumed): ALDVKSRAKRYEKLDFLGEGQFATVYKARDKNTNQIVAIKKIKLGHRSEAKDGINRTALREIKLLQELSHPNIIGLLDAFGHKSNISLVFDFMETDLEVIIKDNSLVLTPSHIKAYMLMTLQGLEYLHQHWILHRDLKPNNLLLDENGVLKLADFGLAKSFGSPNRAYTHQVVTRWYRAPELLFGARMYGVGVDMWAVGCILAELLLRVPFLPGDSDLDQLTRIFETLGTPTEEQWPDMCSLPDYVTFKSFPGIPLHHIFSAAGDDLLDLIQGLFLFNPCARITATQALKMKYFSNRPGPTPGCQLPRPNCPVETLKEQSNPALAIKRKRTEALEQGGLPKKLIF
Target sequence in this assay (P51946 whole entry partner): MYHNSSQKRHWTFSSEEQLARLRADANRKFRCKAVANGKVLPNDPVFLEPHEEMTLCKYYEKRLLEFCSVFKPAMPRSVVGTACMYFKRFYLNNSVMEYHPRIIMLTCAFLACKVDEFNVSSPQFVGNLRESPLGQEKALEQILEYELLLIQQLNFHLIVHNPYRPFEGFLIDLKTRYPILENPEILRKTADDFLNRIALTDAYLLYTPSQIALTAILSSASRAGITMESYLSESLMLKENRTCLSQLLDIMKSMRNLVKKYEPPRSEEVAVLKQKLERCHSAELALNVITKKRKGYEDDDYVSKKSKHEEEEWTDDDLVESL
Target sequence in this assay (P51948 whole entry partner): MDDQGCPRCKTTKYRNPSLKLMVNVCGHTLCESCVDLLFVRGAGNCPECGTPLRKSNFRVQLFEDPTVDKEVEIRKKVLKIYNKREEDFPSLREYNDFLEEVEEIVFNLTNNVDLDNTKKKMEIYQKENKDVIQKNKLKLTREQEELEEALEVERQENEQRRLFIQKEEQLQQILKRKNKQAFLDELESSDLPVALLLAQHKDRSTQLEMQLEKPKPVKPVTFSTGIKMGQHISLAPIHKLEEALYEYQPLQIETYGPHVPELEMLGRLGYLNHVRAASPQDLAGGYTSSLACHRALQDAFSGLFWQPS
The target in experiment [3] is T1, CDK12. As to the kind of experiment: Biochemical assay for CDK12 (kinase-tagged phage / qPCR competition binding). Details: host or cells: E. coli BL21-derived host (T7 phage display) or HEK-293. As for the experimental part: Kinase-tagged T7 phage strains were grown in parallel in 24-well blocks in an E. coli host derived from the BL21 strain. E. coli were grown to log-phase and infected with T7 phage from a frozen stock (multiplicity of infection=0.4) and incubated with shaking at 32° C. until lysis (90-150 minutes). The lysates were centrifuged (6,000×g) and filtered (0.2 μm) to remove cell debris. The remaining kinases were produced in HEK-293 cells and subsequently tagged with DNA for qPCR detection. Streptavidin-coated magnetic beads were treated with biotinylated small molecule ligands for 30 minutes at room temperature to generate affinity resins for kinase assays. The liganded beads were blocked with excess biotin and washed with blocking buffer (SeaBlock (Pierce), 1% BSA, 0.05% Tween 20, 1 mM
DTT) to remove unbound ligand and to reduce non-specific phage binding. Binding reactions were assembled by combining kinases, liganded affinity beads, and test compounds in lx binding buffer (20% SeaBlock, 0.17×PBS, 0.05% Tween 20, 6 mM DTT). Test compounds were prepared as 40× stocks in 100% DMSO and directly diluted into the assay. All reactions were performed in polypropylene 384-well plates in a final volume of 0.02 ml. The assay plates were incubated at room temperature with shaking for 1 hour and the affinity beads were washed with wash buffer (1 PBS, 0.05% Tween 20). The beads were then re-suspended in elution buffer (1× PBS, 0.05% Tween 20, 0.5 μM non-biotinylated affinity ligand) and incubated at room temperature with shaking for 30 minutes. The kinase concentration in the eluates was measured by qPCR.
Target sequence in this assay (Q9NYV4 whole entry, species assumed): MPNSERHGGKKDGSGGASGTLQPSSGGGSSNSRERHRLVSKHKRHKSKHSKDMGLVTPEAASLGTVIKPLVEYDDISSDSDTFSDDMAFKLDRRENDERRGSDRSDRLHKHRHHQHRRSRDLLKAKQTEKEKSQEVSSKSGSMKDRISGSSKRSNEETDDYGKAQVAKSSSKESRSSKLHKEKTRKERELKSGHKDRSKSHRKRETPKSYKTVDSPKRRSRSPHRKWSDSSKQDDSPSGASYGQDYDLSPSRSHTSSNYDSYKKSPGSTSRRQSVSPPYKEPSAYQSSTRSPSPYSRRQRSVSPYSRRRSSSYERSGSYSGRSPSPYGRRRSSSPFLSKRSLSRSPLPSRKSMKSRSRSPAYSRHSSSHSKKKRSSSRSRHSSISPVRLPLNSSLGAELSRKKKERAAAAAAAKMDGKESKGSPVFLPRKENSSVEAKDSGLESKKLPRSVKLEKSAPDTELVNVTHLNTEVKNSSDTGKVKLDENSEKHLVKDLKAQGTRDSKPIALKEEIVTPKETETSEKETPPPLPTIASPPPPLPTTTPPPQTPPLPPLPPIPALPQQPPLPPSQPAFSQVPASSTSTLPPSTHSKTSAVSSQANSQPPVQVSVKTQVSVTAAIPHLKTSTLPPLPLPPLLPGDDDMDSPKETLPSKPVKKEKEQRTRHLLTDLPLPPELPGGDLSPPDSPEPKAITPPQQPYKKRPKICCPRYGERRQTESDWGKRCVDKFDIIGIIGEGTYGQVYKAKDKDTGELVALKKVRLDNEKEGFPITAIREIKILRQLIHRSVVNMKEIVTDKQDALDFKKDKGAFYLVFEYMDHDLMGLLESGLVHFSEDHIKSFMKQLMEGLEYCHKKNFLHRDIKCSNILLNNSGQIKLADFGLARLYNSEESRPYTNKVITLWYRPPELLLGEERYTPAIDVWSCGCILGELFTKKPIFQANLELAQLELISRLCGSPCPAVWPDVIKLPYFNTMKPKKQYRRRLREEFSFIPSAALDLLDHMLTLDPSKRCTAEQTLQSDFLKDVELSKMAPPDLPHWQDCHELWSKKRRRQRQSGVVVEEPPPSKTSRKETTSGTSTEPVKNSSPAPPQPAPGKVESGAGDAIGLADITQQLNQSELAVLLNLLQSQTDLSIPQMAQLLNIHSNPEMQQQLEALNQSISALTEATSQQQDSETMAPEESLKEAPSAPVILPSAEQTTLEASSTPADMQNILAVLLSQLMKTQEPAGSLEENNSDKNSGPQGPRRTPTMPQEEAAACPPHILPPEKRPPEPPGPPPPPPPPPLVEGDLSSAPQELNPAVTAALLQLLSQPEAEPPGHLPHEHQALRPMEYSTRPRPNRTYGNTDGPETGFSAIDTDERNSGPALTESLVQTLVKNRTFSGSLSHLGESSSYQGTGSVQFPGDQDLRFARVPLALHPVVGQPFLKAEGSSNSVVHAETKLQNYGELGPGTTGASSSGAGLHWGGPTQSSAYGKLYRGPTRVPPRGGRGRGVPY

In experiment [4] the target is T2, CDK7. Description: Biochemical assay for CDK7 (LANCE TR-FRET, ULight-MBP phosphorylation). The note with it: CDK7 10 nM, ATP 1 mM/100 μM, 60 min pre-incubation. As for the experimental part: The inhibitory activity of the test compounds was assessed by the LANCE TR-FRET assay, which detects the ATP-dependent phosphorylation of an ULight-myelin basic protein (MBP) substrate peptide (100 nM) by CDK7 (10 nM). Briefly, the enzyme reaction was run in reaction buffer (20 mM HEPES (pH 7.5), 10 mM MgCl2, 0.01% Triton x, 100 μM Sodium Orthovanadate, 1 mM DTT). The assay was performed in 384-well plate. The end concentration of the ATP substrate was 1 mM/100 μM, and that of the ULight-MBP substrate peptide was 100 nM, and of CDK7 was 10 nM. Pre-incubation of the compound and enzyme was performed for 60 min at room temperature. After 60 min incubation at room temperature, the reaction was terminated by the addition of 40 mM EDTA and 1 nM Eu-labeled anti-phospho-MBP-binding protein antibody in the buffer. Time-resolved fluorescence (excitation, 320 nm; emission donor, 615 nm; emission acceptor, 665 nm) was monitored by using 2030 multilabel reader Victor5 (PerkinElmer). The readout was calculated as (acceptor counts/donor counts)×1000. The IC50 values were derived by fitting a sigmoidal dose-response curve to a plot of assay readout over inhibitor concentration. All fits were computed with the program Prism 5.03 (Graph Pad Software, San Diego, Calif.).
Target sequence in this assay (P50613 whole entry, species assumed): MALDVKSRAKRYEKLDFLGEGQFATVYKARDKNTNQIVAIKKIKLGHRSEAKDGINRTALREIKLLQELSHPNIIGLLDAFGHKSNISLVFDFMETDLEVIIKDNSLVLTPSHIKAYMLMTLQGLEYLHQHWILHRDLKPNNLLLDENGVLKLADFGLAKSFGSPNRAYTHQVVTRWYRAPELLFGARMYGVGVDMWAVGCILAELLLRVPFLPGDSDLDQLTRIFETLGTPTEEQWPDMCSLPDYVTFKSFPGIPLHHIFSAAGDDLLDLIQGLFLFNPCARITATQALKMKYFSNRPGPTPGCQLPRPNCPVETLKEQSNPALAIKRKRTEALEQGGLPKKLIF
Target sequence in this assay (P51946 whole entry partner, species assumed): as the sequence (P51946 whole entry partner) above
Target sequence in this assay (P51948 whole entry partner, species assumed): as the sequence (P51948 whole entry partner) above

Another experiment deals with CDK13 (Homo sapiens, UniProt Q14004). Description: Biochemical assay for CDK13 (LanthaScreen Eu Kinase Binding Assay). The note with it: kinase tracer 236 100 nM, CDK13 5 nM. Here is the method: LanthaScreen Eu Kinase Binding Assays are based on the binding and displacement of Alexa Fluor 647-labeled, ATP-competitive kinase inhibitor scaffold (kinase tracer) to the kinase of interest. Binding of the kinase tracer 236 (100 nM) to the CDK13 (5 nM) kinase is detected using a europium-labelled anti- GST tag antibody (2 nM), which binds to the kinase. Simultaneous binding of the tracer and antibody to the kinase results in a high degree of FRET (fluorescence resonance energy transfer) from the europium (Eu) donor fluorophore to the Alexa Fluor™ 647 acceptor fluorophore on the kinase tracer. Binding of an inhibitor to the kinase competes for binding with the tracer, resulting in a loss of FRET signal.

Structures are written as SMILES. pIC50, pKd: −log10 of the molar value. Bounds are passed on as bounds.

CDK13, sequence (Q14004 whole entry, species assumed): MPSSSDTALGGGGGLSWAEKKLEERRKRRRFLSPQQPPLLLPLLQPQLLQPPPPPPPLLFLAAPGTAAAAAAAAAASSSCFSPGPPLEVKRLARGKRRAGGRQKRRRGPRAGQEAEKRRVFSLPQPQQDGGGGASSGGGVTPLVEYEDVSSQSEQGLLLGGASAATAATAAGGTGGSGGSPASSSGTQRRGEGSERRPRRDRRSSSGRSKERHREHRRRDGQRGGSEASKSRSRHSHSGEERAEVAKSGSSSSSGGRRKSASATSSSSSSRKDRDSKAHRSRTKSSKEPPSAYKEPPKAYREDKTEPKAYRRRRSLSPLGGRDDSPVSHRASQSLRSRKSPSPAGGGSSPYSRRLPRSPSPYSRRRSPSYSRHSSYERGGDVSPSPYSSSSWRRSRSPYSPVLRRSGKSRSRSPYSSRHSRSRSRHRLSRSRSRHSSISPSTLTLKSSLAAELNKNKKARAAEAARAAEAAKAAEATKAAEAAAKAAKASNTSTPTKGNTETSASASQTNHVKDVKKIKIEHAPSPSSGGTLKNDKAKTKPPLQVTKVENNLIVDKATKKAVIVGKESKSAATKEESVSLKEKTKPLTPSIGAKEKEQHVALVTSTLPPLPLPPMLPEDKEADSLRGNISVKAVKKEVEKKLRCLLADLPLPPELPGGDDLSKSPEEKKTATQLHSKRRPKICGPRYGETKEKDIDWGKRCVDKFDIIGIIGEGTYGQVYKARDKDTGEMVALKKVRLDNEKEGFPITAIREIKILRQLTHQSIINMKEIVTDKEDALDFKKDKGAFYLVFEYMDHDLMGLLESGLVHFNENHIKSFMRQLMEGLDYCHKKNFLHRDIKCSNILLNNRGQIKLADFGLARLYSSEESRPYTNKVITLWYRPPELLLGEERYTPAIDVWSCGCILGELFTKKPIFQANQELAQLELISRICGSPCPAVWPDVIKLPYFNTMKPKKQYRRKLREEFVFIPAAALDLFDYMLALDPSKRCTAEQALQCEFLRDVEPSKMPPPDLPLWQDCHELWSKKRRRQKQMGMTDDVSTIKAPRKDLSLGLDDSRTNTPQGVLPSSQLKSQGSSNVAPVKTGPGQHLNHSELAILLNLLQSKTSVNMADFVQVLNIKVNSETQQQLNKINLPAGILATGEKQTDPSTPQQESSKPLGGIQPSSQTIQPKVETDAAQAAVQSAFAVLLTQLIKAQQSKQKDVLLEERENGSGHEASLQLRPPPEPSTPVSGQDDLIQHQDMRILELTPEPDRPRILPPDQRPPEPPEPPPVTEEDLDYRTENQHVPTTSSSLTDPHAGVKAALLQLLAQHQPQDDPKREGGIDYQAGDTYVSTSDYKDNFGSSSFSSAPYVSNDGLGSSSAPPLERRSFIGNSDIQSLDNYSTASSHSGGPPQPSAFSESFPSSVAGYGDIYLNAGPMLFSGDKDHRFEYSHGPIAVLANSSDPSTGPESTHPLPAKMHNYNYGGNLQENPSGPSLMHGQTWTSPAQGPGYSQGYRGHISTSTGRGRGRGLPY
CDK13, sequence (O75909 whole entry partner, species assumed): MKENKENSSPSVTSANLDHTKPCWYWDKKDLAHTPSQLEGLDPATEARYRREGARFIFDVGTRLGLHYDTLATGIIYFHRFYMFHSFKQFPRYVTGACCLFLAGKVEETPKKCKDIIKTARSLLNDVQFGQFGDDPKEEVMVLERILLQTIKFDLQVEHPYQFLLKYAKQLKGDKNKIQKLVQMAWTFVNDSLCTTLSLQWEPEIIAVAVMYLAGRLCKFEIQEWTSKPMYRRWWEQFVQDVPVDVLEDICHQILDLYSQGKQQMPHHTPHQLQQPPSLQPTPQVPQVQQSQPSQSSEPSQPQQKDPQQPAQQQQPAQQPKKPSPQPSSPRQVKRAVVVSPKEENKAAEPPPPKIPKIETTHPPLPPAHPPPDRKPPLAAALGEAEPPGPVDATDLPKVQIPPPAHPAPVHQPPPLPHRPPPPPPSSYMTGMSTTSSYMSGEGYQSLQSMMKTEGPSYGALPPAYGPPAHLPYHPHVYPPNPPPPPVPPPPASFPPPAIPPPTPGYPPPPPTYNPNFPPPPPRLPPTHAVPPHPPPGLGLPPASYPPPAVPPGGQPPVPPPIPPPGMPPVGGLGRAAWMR

`C=CC(=O)NCc1ccc(-c2cccc(C(C)C(=O)Nc3cc(C4CC4)[nH]n3)c2)cn1` (centres unmarked) [Compound A] registered a Jurkat Cells, CDK12 Target Occ50 at CDK12 [1] of 0.23 µM. The “Jurkat Cells, CDK7 Target Occ50” value on CDK7 [2] came out at 0.61 µM. The “Fold CDK7 Target Occ50 over CDK12 Target Occ50” value at CDK7 [2] (printed in brackets beside the CDK7 Occ50) was 2 ×.

`C=CC(=O)NCc1ccc(-c2ccc(C(C)C(=O)Nc3cc(C4CC4)[nH]n3)cc2)cc1` (single isomer, unassigned) [Compound 10, N-((4′-(1-((5-cyclopropyl-1H-pyrazol-3-yl)amino)-1-oxopropan-2-yl)-[1,1′-biphenyl]-4-yl)methyl)acrylamide] showed a negative-log Kd (pKd) at CDK12 [3] of less than 6.30. The pIC50 is less than 5.00 at CDK7 [4] and 6.09 on CDK13.

Turning to `CC(C(=O)Nc1cc(C2CC2)[nH]n1)c1ccc(-c2ccc(CNC(=O)/C=C/CN3CCOCC3)cc2)cc1` (single isomer, unassigned) [Compound 16, (E)-N-((4′-(1-((5-cyclopropyl-1H-pyrazol-3-yl)amino)-1-oxopropan-2-yl)-[1,1′-biphenyl]-4-yl)methyl)-4-morpholinobut-2-enamide], the pKd at CDK12 [3] is less than 6.30. In addition, the values for the negative-log IC50 (pIC50) against CDK7 [4] and on CDK13 were less than 5.00 and 6.67, respectively.

`C=CC(=O)Nc1ccc(-c2ccc(C(C)C(=O)Nc3cc(C4CC4)[nH]n3)cc2)cc1` (racemic) [Compound 1, N-(4′-(1-((5-cyclopropyl-1H-pyrazol-3-yl)amino)-1-oxopropan-2-yl)-[1,1′-biphenyl]-4-yl)acrylamide] showed a pKd at CDK12 [3] of 6.30 to 7.30. The negative-log IC50 (pIC50) on CDK7 [4] is 4.94; at CDK13, 7.62.

Molecule `C=CC(=O)NCc1ccc(-c2ccc([C@H](C)C(=O)Nc3cc(C4CC4)[nH]n3)cc2)cn1` [Compound 8, (S)-N-((5-(4-(1-((5-cyclopropyl-1H-pyrazol-3-yl)amino)-1-oxopropan-2-yl)phenyl)pyridin-2-yl)methyl)acrylamide] gave a negative-log Kd (pKd) at CDK12 [3] greater than 7.30. Besides, the “Jurkat Cells, CDK12 Target Occ50” value at CDK12 [1] was 0.022 µM. Besides, the pIC50 was 5.27 on CDK7 [4] and 8.42 at CDK13. For the same molecule, the “Jurkat Cells, CDK7 Target Occ50” value at CDK7 [2] is on record as >>2 μM.

On CDK12 [3], `CC(C(=O)Nc1cc(C2CC2)[nH]n1)c1ccc(-c2ccc(CNC(=O)/C=C/CN3CCOCC3)nc2)cc1` (single isomer, unassigned) [Compound 13, (E)-N-((5-(4-(1-((5-cyclopropyl-1H-pyrazol-3-yl)amino)-1-oxopropan-2-yl)phenyl)pyridin-2-yl)methyl)-4-morpholinobut-2-enamide] showed a pKd of less than 6.30. In addition, the values for the negative-log IC50 (pIC50) on CDK7 [4] and at CDK13 were less than 5.00 and 5.69, respectively.

With `C=CC(=O)NCc1ccc(-c2ccc(C(C)C(=O)Nc3cc(C4CC4)[nH]n3)cc2)nc1` (centres unmarked) [Compound 22, N-((6-(4-(1-((5-cyclopropyl-1H-pyrazol-3-yl)amino)-1-oxopropan-2-yl)phenyl)pyridin-3-yl)methyl)acrylamide], the negative-log Kd (pKd) at CDK12 [3] was greater than 7.30. Moreover, the negative-log IC50 (pIC50) was 5.28 on CDK7 [4] and 7.68 on CDK13.

Broadly, the pKd is the negative decadic logarithm of the Kd, by convention in mol/L. In general, pIC50 refers to the IC50 on a negative log10 scale, so that one unit is a factor of ten. Low values mean a large IC50, high ones a small IC50.
